Consider twelve compounds from patent US8309685B2 (Celgene Avilomics Research, Inc., priority 2007, dated 2012).

The subject of data set [1] is HCV RNA replicon in cell line ET (luc-ubi-neo/ET), human Huh7 hepatoma. Description: Method A: HCV RNA replicon antiviral assay (luciferase, ET cell line). In kind it is cell-based, Hepatitis C virus. Conditions: Hepatitis C virus, Huh-7; Replicon, assay of Example 22; 72 hr; read-out: Inhibition, Replicon. The gist of the method: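 ET replicon cells (Huh7 carrying luciferase-reporter HCV replicon) plated at 5×10^3 cells/well and exposed 72 hr to six 3-fold drug concentrations in DMEM/5% FBS. Replicon luciferase gave EC50/EC90; CytoTox-1 cell counts gave IC50 (viability); […]. Interferon alpha-2b served as positive control.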

The test system of data set [2] is cell line ET (luc-ubi-neo/ET), human Huh7 hepatoma cell line. Description: Method A: cytotoxicity in ET replicon cells (CytoTox-1). Conditions: concentration decreasing cell viability by 50%, 72 hr. In kind it is cell-based. The method, then: The compounds were assayed to evaluate the antiviral activity and cytotoxicity of compounds in vitro using HCV RNA replicons. This assay used the cell line ET (luc-ubi-neo/ET), which is a human Huh7 hepatoma cell line that contains an HCV RNA replicon with a stable luciferase (Luc) reporter and three cell culture-adaptive mutations. […]
The ET cell line was grown in Dulbecco's modified essential media (DMEM), 10% fetal bovine serum (FBS), 1% penicillin-streptomycin (pen-strep), 1% glutamine, 250 μg/ml G418 in a 5% CO2 incubator at 37° C. All cell culture reagents were obtained from Mediatech (Manassas, Va.). Cells were trypsinized (1% trypsin:EDTA) and plated out at 5×10^3 cells/well in white 96-well assay plates (Costar) dedicated to cell number (cytotoxicity) or antiviral activity assessments. Drugs were added at six 3-fold concentrations each and the assay was run in DMEM, 5% FBS, 1% pen-strep, 1% glutamine. Human interferon alpha-2b (PBL Biolabs, New Brunswick, N.J.) was included in each run as a positive control compound. Cells were processed 72 hr post drug addition when the cells are still subconfluent. Antiviral activity was measured by analyzing replicon-derived luciferase activity using the Steady-Glo Luciferase Assay System (Promega, Madison, Wis.) according to manufacturer's instruction. The number of cells in each well was determined by CytoTox-1 reagent (Promega). […].

In data set [3] the target is T1, wild type HCV NS3/4A 1b protease enzyme (Hepatitis C virus genotype 1b, UniProt P26663).
T1 construct: 10× stocks of NS3/4A protease enzyme from Bioenza (Mountain View, Calif.); purchased Bioenza (Mountain View, Calif.)
The experiment in a line: biochemical. The data set is classed as biochemical. The note with it: read-out: Inhibition, WT; WT enzyme, FRET assay. The method, then:
(§1) HCV Protease FRET Assay for Wild Type and Mutated NS3/4A 1b Enzymes (IC50)
(§2) Protease reactions were started with the addition of 45 μL of the FRET substrate and monitored for 120 minutes at λex487/λem514 through Quad^4 monochromoters in a Synergy^4 plate reader from BioTek (Winooski, Vt.). At the conclusion of each assay, progress curves from each well were examined for linear reaction kinetics and fit statistics (R^2, absolute sum of squares).
(§3) The compound numbers correspond to the compound numbers in Table 3.

Data set [4] deals with T2, D168A mutant of the HCV NS3/4A 1b protease enzyme (Hepatitis C virus genotype 1b, UniProt P26663, D1194A).
T2 construct: 10× stocks of NS3/4A protease enzyme from Bioenza (Mountain View, Calif.); purchased Bioenza (Mountain View, Calif.)
The experiment in a line: HCV Protease FRET Assay (IC50), D168A mutant. The data set is classed as biochemical. Conditions: read-out: Inhibition, HCV D168A; D168A enzyme, FRET assay. The method, then: as §1, §2, §3

The target of data set [5] is T2, D168A mutant of the HCV NS3/4A 1b protease enzyme. Description: HCV Protease FRET Assay (IC50_APP), D168A mutant. The data set is classed as biochemical. Conditions: apparent IC50, D168A mutant; read-out: IC50_APP, HCV D168A.
Data set [6] concerns the target T3, R155K mutant of the HCV NS3/4A 1b protease enzyme (Hepatitis C virus genotype 1b, UniProt P26663, R1181K).
T3 construct: 10× stocks of NS3/4A protease enzyme from Bioenza (Mountain View, Calif.); purchased Bioenza (Mountain View, Calif.)
The experiment in a line: HCV Protease FRET Assay (IC50_APP), R155K mutant. In kind it is biochemical. Conditions: apparent IC50, R155K mutant; read-out: IC50_APP, HCV R155K. The method, then: HCV Protease FRET Assay for WT and Mutated NS3/4A 1b Enzymes (IC50—APP).
The following protocol was used to generate “apparent” IC50 (IC50—APP) values as depicted in Table 6, below. […] 5 μL of each enzyme were added to Corning (#3575) 384-well, black, microtiter plates (Corning, N.Y.) after spotting a 0.5 μL volume of 50% DMSO and serially diluted compounds prepared in 50% DMSO. Protease reactions were immediately started after enzyme addition with the addition of 45 μL of the FRET substrate and monitored for 60-90 minutes at λex485/λem520 in a Synergy^4 plate reader from BioTek (Winooski, Vt.). At the conclusion of each assay, progress curves from each well were examined for linear reaction kinetics and fit statistics (R^2, 95% confidence intervals, absolute sum of squares).
The compound numbers correspond to the compound numbers in Table 3. […] ;

The subject of data set [7] is HCV RNA replicon in cell line ET (luc-ubi-neo/ET), human Huh7 hepatoma. Description: Luciferase Assay (Example 35), replicon-derived luciferase activity. In kind it is cell-based. The note with it: Hepatitis C virus, Huh-7, assay described in Example 35. The method, then:
The compounds were assayed to evaluate the antiviral activity and cytotoxicity of compounds using replicon-derived luciferase activity. This assay used the cell line ET (luc-ubi-neo/ET), which is a human Huh7 hepatoma cell line that contains an HCV RNA replicon with a stable luciferase (Luc) reporter and cell culture-adaptive mutations. The ET cell line was grown in a 5% CO2 incubator at 37° C. in Dulbecco's modified essential media (DMEM) supplemented with 2 mM L-glutamine, nonessential amino acids, 100 U of penicillin/ml, 100 μg of streptomycin/mL, and 10% fetal bovine serum. G418 (Geneticin; Invitrogen) was added at a final concentration of 400 ug//mL.
All cell culture reagents were obtained from Invitrogen (Carlsbad). Cells were trypsinized (1% trypsin:EDTA) and plated out at 5×10^3 cells/well in white 96-well assay plates (Costar) dedicated to cell number (cytotoxicity) or antiviral activity assessments. Test compounds were added at six 3-fold concentrations each and the assay was run in DMEM, 5% FBS, 1% pen-strep, 1% glutamine, 1% non essential amino acid. Human interferon alpha-2b (PBL Biolabs, New Brunswick, N.J.) was included in each run as a positive control compound. Cells were processed 72 hr post test compound addition when the cells were still subconfluent. Antiviral activity was measured by analyzing replicon-derived luciferase activity using the Steady-Glo Luciferase Assay System (Promega, Madison, Wis.) according to manufacturer's instruction. The number of cells in each well was determined by Cell Titer Blue Assay (Promega). Compound profile was derived by calculating applicable EC50 (effective concentration inhibiting virus replication by 50%), EC90 (effective concentration inhibiting virus replication by 90%), IC50 (concentration decreasing cell viability by 50%) and SI50 (selective index: […]) values.

The target in data set [8] is T1, wild type HCV NS3/4A 1b protease enzyme. The experiment in a line: HCV Protease FRET Assay (IC50_APP), wild type. The data set is classed as biochemical.
[9] abbreviates: read-out: IC50_APP, WT, apparent IC50, wild type NS3/4A 1b.

Consider `C=C[C@@H]1C[C@]1(NC(=O)[C@@H]1C[C@@H](Oc2cc(-c3ccccc3)nc3cc(OC)ccc23)CN1C(=O)C1(NC(=O)OC(C)(C)C)CCN(C(=O)CCl)CC1)C(=O)NS(=O)(=O)c1ccccc1` [Compound I-25, tert-butyl-1-(2-chloroacetyl)-4-((2S,4R)-4-(7-methoxy-2-phenylquinolin-4-yloxy)-2-((1R,2S)-1-(phenylsulfonylcarbamoyl)-2-vinylcyclopropylcarbamoyl)pyrrolidine-1-carbonyl)piperidin-4-ylcarbamate], for which the results for the IC50 in data set [1], in data set [3] and in data set [4] were above 10000 nM, below 10 nM and 10 to 100 nM, respectively. Moreover, the “Inhibition, Cytotoxicity” value in data set [2] is “C (IC50>100 nM and ≦1000 nM)”.
Turning to `C=C[C@@H]1C[C@]1(NC(=O)[C@@H]1C[C@@H]2CN1C(=O)[C@H](CCC(=O)C=C(C)C)NC(=O)OCCC/C=C/c1ccc3ccnc(c3c1)O2)C(=O)NS(=O)(=O)C1CC1` [Compound I-102], the IC50 is 1000 to 10000 nM in data set [5], 10 to 100 nM in data set [6] and below 10 nM in data set [8]. Besides, in data set [7] (EC90), the EC90 fell in the range of 10 to 100 nM. This compound came in with an EC50 in data set [7] below 10 nM.
For `C=C[C@@H]1C[C@]1(NC(=O)[C@@H]1C[C@@H](Oc2nccc3cc(OC)ccc23)CN1C(=O)[C@H](CC(=O)C=C(C)C)NC(=O)OC(C)(C)C)C(=O)NS(=O)(=O)C1CC1` [Compound I-129], the IC50 in data set [5] is 100 to 1000 nM; in data set [6], 10 to 100 nM; in data set [8] (setting [9]) it was below 10 nM. Further, in data set [7], the EC50 is below 10 nM.
Consider `C=CC(=O)N[C@H](C(=O)N1C[C@H](Oc2nccc3cc(OC)ccc23)C[C@H]1C(=O)N[C@]1(C(=O)NS(=O)(=O)C2CC2)C[C@H]1C=C)C(C)(C)O` [Compound I-131], for which the IC50 in data set [5] is 10 to 100 nM; in data set [6] it was 10 to 100 nM; in data set [8] (setting [9]), below 10 nM. The same compound returned a concentration giving a half-maximal response (EC50) in data set [7] of 100 to 1000 nM.
Take `C=C[C@@H]1C[C@]1(NC(=O)[C@@H]1C[C@@H](Oc2nccc3cc(OC)ccc23)CN1C(=O)[C@H](CC(=O)C(=C)C)NC(=O)OC(C)(C)C)C(=O)NS(=O)(=O)C1CC1` [Compound I-132]: the IC50 in data set [5], in data set [6] and in data set [8] (setting [9]) was below 10 nM in each case. The compound also registered an EC50 in data set [7] of 100 to 1000 nM.
On to `C=C[C@@H]1C[C@]1(NC(=O)[C@@H]1C[C@@H](Oc2nccc3cc(OC)ccc23)CN1C(=O)[C@H](CCC(=O)C#CC(C)(C)C)NC(=O)OC(C)(C)C)C(=O)NS(=O)(=O)C1CC1` [Compound I-135], for which the IC50 in data set [5], in data set [6] and in data set [8] (setting [9]) was below 10 nM throughout. The same compound gave an EC50 in data set [7] of 10 to 100 nM.
With `C=C[C@@H]1C[C@]1(NC(=O)[C@@H]1C[C@@H](Oc2nccc3cc(OC)ccc23)CN1C(=O)[C@H](CCC(=O)/C=C\C(C)(C)C)NC(=O)OC(C)(C)C)C(=O)NS(=O)(=O)C1CC1` [Compound I-136], the figures for the IC50 in data set [5], in data set [6] and in data set [8] (setting [9]) were 100 to 1000 nM, 100 to 1000 nM and below 10 nM, respectively. This compound also displayed an EC50 in data set [7] below 10 nM.
In the case of `C=C[C@@H]1C[C@]1(NC(=O)[C@@H]1C[C@@H](Oc2nccc3cc(OC)ccc23)CN1C(=O)[C@H](CCC(=O)C#Cc1ccccc1)NC(=O)OC(C)(C)C)C(=O)NS(=O)(=O)C1CC1` [Compound I-138], the IC50 was 10 to 100 nM in data set [5], below 10 nM in data set [6] and below 10 nM in data set [8] (setting [9]). The same compound showed an EC50 in data set [7] of 100 to 1000 nM.
`C=C[C@@H]1C[C@]1(NC(=O)[C@@H]1C[C@@H](Oc2nccc3cc(OC)ccc23)CN1C(=O)[C@H](CCC(=O)/C=C/C)NC(=O)OC(C)(C)C)C(=O)NS(=O)(=O)C1CC1` [Compound I-139]: the IC50 in data set [5], in data set [6] and in data set [8] (setting [9]) was below 10 nM each time. The same compound came in with an EC50 in data set [7] of 10 to 100 nM.
On to `C=C(C)C(=O)C[C@H](NC(=O)OC(C)(C)C)C(=O)N1C[C@H](Oc2nccc3cc(OC)ccc23)C[C@H]1C(=O)N[C@]1(C(=O)NS(=O)(=O)C2CC2)C[C@H]1CC` [Compound I-140], for which the IC50 in data set [5] was 10 to 100 nM; in data set [6] it was below 10 nM; in data set [8] (setting [9]) it was below 10 nM. The EC50 in data set [7] lay in the range of 100 to 1000 nM.
Take `C=C[C@@H]1C[C@]1(NC(=O)[C@@H]1C[C@@H](Oc2nccc3cc(OC)ccc23)CN1C(=O)[C@H](CCC(=O)/C=C/C1CCCC1)NC(=O)OC(C)(C)C)C(=O)NS(=O)(=O)C1CC1` [Compound I-141, tert-butyl-(S,E)-7-cyclopentyl-1-((2S,4R)-2-((1R,2S)-1-(cyclopropylsulfonylcarbamoyl)-2-vinylcyclopropylcarbamoyl)-4-(6-methoxyisoquinolin-1-yloxy)pyrrolidin-1-yl)-1,5-dioxohept-6-en-2-ylcarbamate]: the IC50 in data set [5] was 100 to 1000 nM; in data set [6], 10 to 100 nM; in data set [8] it was below 10 nM. The compound also yielded an EC50 in data set [7] below 10 nM.
On to `C=C[C@@H]1C[C@]1(NC(=O)[C@@H]1C[C@@H](Oc2nccc3cc(OC)ccc23)CN1C(=O)[C@@H](C)NC(=O)CC)C(=O)NS(=O)(=O)C1CC1` [I^R-100, (2S,4R)—N-((1R,2S)-1-(cyclopropylsulfonylcarbamoyl)-2-vinylcyclopropyl)-4-(6-methoxyisoquinolin-1-yloxy)-1-((R)-2-propionamidopropanoyl)pyrrolidine-2-carboxamide], for which the values for the IC50 in data set [5], in data set [6] and in data set [8] were 1000 to 10000 nM, 1000 to 10000 nM and 100 to 1000 nM, respectively. The compound further came in with an EC50 in data set [7] of 1000 to 10000 nM.
